Positions of bridges follow the written chain, without caps; N, C: chain ends. Non-standard residues stand in square brackets, D forms with d. Residues, ends and D or L forms follow the SMILES beside them. Trp(1-Me) = Cn1cc(C[C@H](N)C(=O)O)c2ccccc21; 2Nal = N[C@@H](Cc1ccc2ccccc2c1)C(=O)O; Sar = CNCC(=O)O
Key:
[1] = test system: classical complement pathway; assay: In vitro haemolysis assay (inhibition of classical complement pathway); assay type: cell-based, human; settings: human serum, sensitized sheep red blood cells; Table 3, given as upper bounds; read-out: IC50, inhibition of hemolysis
Procedure, shortened: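 Compound dilutions preincubated 15 min at room temperature with diluted human serum (titrated per batch for 70-90% maximal haemolysis), then antibody-sensitized sheep RBC (10^7/well) added for 30 min at 37 °C in Tris/casein buffer, pH 7.4. Stopped with EDTA; haemolysis read at 405 nm; IC50 by 4PL fit.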

[2] = Solubility test at 10 mg/mL (visual inspection and light scattering); assay type: physicochemical; settings: for Solubility, Condition 1: Acetate pH 4; for Solubility, Condition 2: Acetate pH 5; for Solubility, Condition 3: Phosphate pH 6; for Solubility, Condition 4: Phosphate pH 7; for Solubility, Condition 5: Phosphate pH 7.5

| SMILES | IC50 [1] | Solubility, Condition 1 [2] | Solubility, Condition 2 [2] | Solubility, Condition 3 [2] | Solubility, Condition 4 [2] | Solubility, Condition 5 [2] |
| --- | --- | --- | --- | --- | --- | --- |
| CC[C@H](C)[C@@H]1NC(=O)[C@@H](NC(=O)[C@H](Cc2ccc(O)cc2)NC(C)=O)CSSC[C@@H](C(=O)N[C@H](C(=O)NCC(=O)N[C@@H](C)C(=O)N[C@@H](CCC(=O)O)C(=O)N[C@@H](CO)C(N)=O)[C@@H](C)O)NC(=O)[C@H](CCCNC(=N)N)NC(=O)[C@H](Cc2c[nH]cn2)NC(=O)[C@H](CCC(=O)O)NC(=O)CNC(=O)[C@H](Cc2c[nH]c3ccccc23)NC(=O)[C@H](CC(=O)O)NC(=O)[C@H](CCC(N)=O)NC(=O)[C@H](Cc2ccc3ccccc3c2)NC1=O [Compound 65] (Ac-YCI[2Nal]QDWGEHRCTGAES-NH2; disulfide 2-12) | < 100 nM | − (“−” denotes lack of solubility at the given condition, as UV absorbance at 340 nm exceeds 0.1 AU and/or it is visibly turbid or contains particles) | − (“−” denotes lack of solubility at the given condition, as UV absorbance at 340 nm exceeds 0.1 AU and/or it is visibly turbid or contains particles) | + (“+” denotes solubility at the given condition, as determined by UV absorbance being less than 0.1 AU at 340 nm and the sample being clear when manually inspected) | + (“+” denotes solubility at the given condition, as determined by UV absorbance being less than 0.1 AU at 340 nm and the sample being clear when manually inspected) | + (“+” denotes solubility at the given condition, as determined by UV absorbance being less than 0.1 AU at 340 nm and the sample being clear when manually inspected) |
| CC[C@H](C)[C@@H]1NC(=O)[C@@H](NC(=O)[C@H](Cc2ccc(O)cc2)NC(C)=O)CSSC[C@@H](C(=O)N[C@H](C(=O)NCC(=O)N[C@@H](C)C(=O)N[C@@H](CCC(=O)O)C(=O)N[C@@H](CO)C(N)=O)[C@@H](C)O)NC(=O)[C@H](CCCNC(=N)N)NC(=O)[C@H](Cc2c[nH]cn2)NC(=O)[C@H](CCC(=O)O)NC(=O)CNC(=O)[C@H](Cc2c[nH]c3ccccc23)NC(=O)[C@H](CC(=O)O)NC(=O)[C@H](CCC(N)=O)NC(=O)[C@H](Cc2c[nH]c3ccccc23)NC1=O [Compound 66] (Ac-YCIWQDWGEHRCTGAES-NH2; disulfide 2-12) | < 100 nM | − (“−” denotes lack of solubility at the given condition, as UV absorbance at 340 nm exceeds 0.1 AU and/or it is visibly turbid or contains particles) | − (“−” denotes lack of solubility at the given condition, as UV absorbance at 340 nm exceeds 0.1 AU and/or it is visibly turbid or contains particles) | + (“+” denotes solubility at the given condition, as determined by UV absorbance being less than 0.1 AU at 340 nm and the sample being clear when manually inspected) | + (“+” denotes solubility at the given condition, as determined by UV absorbance being less than 0.1 AU at 340 nm and the sample being clear when manually inspected) | + (“+” denotes solubility at the given condition, as determined by UV absorbance being less than 0.1 AU at 340 nm and the sample being clear when manually inspected) |
| CC[C@H](C)[C@@H]1NC(=O)[C@@H](NC(=O)[C@H](Cc2ccccc2)NC(=O)[C@H](CCC(=O)O)NC(=O)[C@H](CO)NC(C)=O)CSSC[C@@H](C(=O)N[C@H](C(=O)NCC(=O)N[C@@H](C)C(=O)N[C@@H](CCC(=O)O)C(=O)N[C@@H](CO)C(N)=O)[C@@H](C)O)NC(=O)[C@H](CCCNC(=N)N)NC(=O)[C@H](Cc2c[nH]cn2)NC(=O)[C@H](CCC(=O)O)NC(=O)CNC(=O)[C@H](Cc2c[nH]c3ccccc23)NC(=O)[C@H](CC(=O)O)NC(=O)[C@H](CCC(N)=O)NC(=O)[C@H](Cc2cn(C)c3ccccc23)NC1=O [Compound 67] (Ac-SEFCI[Trp(1-Me)]QDWGEHRCTGAES-NH2; disulfide 4-14) | < 100 nM | − (“−” denotes lack of solubility at the given condition, as UV absorbance at 340 nm exceeds 0.1 AU and/or it is visibly turbid or contains particles) | − (“−” denotes lack of solubility at the given condition, as UV absorbance at 340 nm exceeds 0.1 AU and/or it is visibly turbid or contains particles) | + (“+” denotes solubility at the given condition, as determined by UV absorbance being less than 0.1 AU at 340 nm and the sample being clear when manually inspected) | + (“+” denotes solubility at the given condition, as determined by UV absorbance being less than 0.1 AU at 340 nm and the sample being clear when manually inspected) | + (“+” denotes solubility at the given condition, as determined by UV absorbance being less than 0.1 AU at 340 nm and the sample being clear when manually inspected) |
| CC[C@H](C)[C@@H]1NC(=O)[C@@H](NC(=O)[C@H](Cc2ccc(O)cc2)NC(C)=O)CSSC[C@@H](C(=O)N[C@H](C(=O)N[C@@H](CCC(=O)O)C(=O)N[C@@H](C)C(=O)NCC(=O)N[C@@H](CO)C(N)=O)[C@@H](C)O)NC(=O)[C@H](CCCNC(=N)N)NC(=O)[C@H](Cc2c[nH]cn2)NC(=O)[C@H](CCC(=O)O)NC(=O)CNC(=O)[C@H](Cc2c[nH]c3ccccc23)NC(=O)[C@H](CC(=O)O)NC(=O)[C@H](CCC(N)=O)NC(=O)[C@H](Cc2cn(C)c3ccccc23)NC1=O [Compound 68] (Ac-YCI[Trp(1-Me)]QDWGEHRCTEAGS-NH2; disulfide 2-12) | < 100 nM | − (“−” denotes lack of solubility at the given condition, as UV absorbance at 340 nm exceeds 0.1 AU and/or it is visibly turbid or contains particles) | − (“−” denotes lack of solubility at the given condition, as UV absorbance at 340 nm exceeds 0.1 AU and/or it is visibly turbid or contains particles) | + (“+” denotes solubility at the given condition, as determined by UV absorbance being less than 0.1 AU at 340 nm and the sample being clear when manually inspected) | + (“+” denotes solubility at the given condition, as determined by UV absorbance being less than 0.1 AU at 340 nm and the sample being clear when manually inspected) | + (“+” denotes solubility at the given condition, as determined by UV absorbance being less than 0.1 AU at 340 nm and the sample being clear when manually inspected) |
| CC[C@H](C)[C@@H]1NC(=O)[C@@H](NC(=O)[C@H](Cc2ccccc2)NC(C)=O)CSSC[C@@H](C(=O)N[C@H](C(=O)NCC(=O)N[C@@H](C)C(=O)N[C@@H](CCC(=O)O)C(=O)N[C@@H](CO)C(N)=O)[C@@H](C)O)NC(=O)[C@H](CCCNC(=N)N)NC(=O)[C@H](Cc2c[nH]cn2)NC(=O)[C@H](CCC(=O)O)NC(=O)CN(C)C(=O)[C@H](Cc2c[nH]c3ccccc23)NC(=O)[C@H](CC(=O)O)NC(=O)[C@H](CCC(N)=O)NC(=O)[C@H](Cc2cn(C)c3ccccc23)NC1=O [Compound 72, Ac-FC(1)I[1-Me-Trp]QDW[Sar]EHRC(1)TGAES-NH2] (Ac-FCI[Trp(1-Me)]QDW[Sar]EHRCTGAES-NH2; disulfide 2-12) | < 100 nM | − (“−” denotes lack of solubility at the given condition, as UV absorbance at 340 nm exceeds 0.1 AU and/or it is visibly turbid or contains particles) | − (“−” denotes lack of solubility at the given condition, as UV absorbance at 340 nm exceeds 0.1 AU and/or it is visibly turbid or contains particles) | + (“+” denotes solubility at the given condition, as determined by UV absorbance being less than 0.1 AU at 340 nm and the sample being clear when manually inspected) | + (“+” denotes solubility at the given condition, as determined by UV absorbance being less than 0.1 AU at 340 nm and the sample being clear when manually inspected) | + (“+” denotes solubility at the given condition, as determined by UV absorbance being less than 0.1 AU at 340 nm and the sample being clear when manually inspected) |
| CC[C@H](C)[C@@H]1NC(=O)[C@@H](NC(=O)[C@H](Cc2ccccc2)NC(=O)[C@H](N)Cc2ccc(O)cc2)CSSC[C@@H](C(=O)N[C@H](C(=O)NCC(=O)N[C@@H](C)C(=O)N[C@@H](CCC(=O)O)C(=O)N[C@@H](CO)C(N)=O)[C@@H](C)O)NC(=O)[C@H](CCCNC(=N)N)NC(=O)[C@H](Cc2c[nH]cn2)NC(=O)[C@H](CCC(=O)O)NC(=O)CN(C)C(=O)[C@H](Cc2c[nH]c3ccccc23)NC(=O)[C@H](CC(=O)O)NC(=O)[C@H](CCC(N)=O)NC(=O)[C@H](Cc2cn(C)c3ccccc23)NC1=O [Compound 73, H-{d}YFC(1)I[1-Me-Trp]QDW[Sar]EHRC(1)TGAES-NH2] (H-[dY]FCI[Trp(1-Me)]QDW[Sar]EHRCTGAES-NH2; disulfide 3-13) | < 100 nM | + (“+” denotes solubility at the given condition, as determined by UV absorbance being less than 0.1 AU at 340 nm and the sample being clear when manually inspected) | − (“−” denotes lack of solubility at the given condition, as UV absorbance at 340 nm exceeds 0.1 AU and/or it is visibly turbid or contains particles) | − (“−” denotes lack of solubility at the given condition, as UV absorbance at 340 nm exceeds 0.1 AU and/or it is visibly turbid or contains particles) | + (“+” denotes solubility at the given condition, as determined by UV absorbance being less than 0.1 AU at 340 nm and the sample being clear when manually inspected) | + (“+” denotes solubility at the given condition, as determined by UV absorbance being less than 0.1 AU at 340 nm and the sample being clear when manually inspected) |
